Patent US20140349943A1, “TOPICAL FORMULATIONS OF CHEMERIN C15 PEPTIDES FOR THE TREATMENT OF DERMATOLOGICAL CONDITIONS” (priority 2011, published 2014)
Values joined by “and” are separate entries in the source; they are usually repeats but may differ in a detail not shown here. Equal entries are not always repeated. Peptide text beside a SMILES is read from it.

Experiments:
[1] = Franz diffusion cell skin penetration, C15 ointment; format: in vitro ADME, human
Method: The objective of the study was to determine whether human chemerin C15 peptide would diffuse through in vitro human skin maintained under flow-through conditions in Franz cells where the C15 peptide is administered as an ointment. Human chemerin C15 peptide was prepared as an ointment as described in Example 4. A 10% solution of the C15 ointment was prepare immediately prior to skin application. […] human skin obtained from abdominoplasty was maintained in tissue media and antibiotics and used within 3 days.
A standard Franz diffusion cell (LGA, Berkeley, Calif.) was used under static conditions (n=3). Approximately 200 μl of the 10% ointment solution was transferred to the surface of the skin and distributed on the surface by spatula. A thin liner was then applied for light pressure to the skin surface for 5 min after which the diffusion cell was occluded and maintained for 24 hours. After this time, the ointment was recovered by scraping a spatula over the skin surface and transferring the retained material to a 50/50 water-chloroform solution. The epidermis and dermis were then separated by heat and the epidermis extracted with a 50/50 water-chloroform solution. The epidermis was then transferred to a second tube and homogenized in PBS containing 0.1% protease inhibitor. The dermis was minced and homogenized in PBS containing 0.1% protease inhibitor. The receptor fluid was recovered and concentrated under vacuum. Ointment without C15 was applied to skin and the skin sampled in the same manner as a control (n=2).
C15 recovery from the dosing material, epidermis, and receptor fluid was determined by HPLC. C15 concentration in the dermis was determine by LC/MS. The skin surface and epidermis recoveries and epidermis homogenate samples were analyzed using the following reversed phase HPLC conditions:
The dermis samples were analyzed using the following LC/MS/MS conditions: […]

[2] = tested on: mice; experiment: Contact hypersensitivity assay; format: in vivo, mouse; conditions: TNCB hapten; ear thickness; expected
Method: In this example, the therapeutic activity of a human chemerin C15 peptide is tested in a contact hypersensitivity assay, which is an in vivo assay of cell-mediated immune function and a model for human allergic contact dermatitis. In this assay, epidermal cells are exposed to exogenous haptens which results in a delayed-type hypersensitive reaction that can be measured and quantified. The Langerhans cell, which is an Ia^+, bone marrow-derived, epidermal cell, initiates sensitization to haptens by presenting antigens to CD4-bearing T lymphocytes, which, in turn, secrete lymphokines and recruit other cells to the site of the reaction.
Contact hypersensitivity consists of the afferent or initial sensitizing phase, and the efferent or elicitation phase. During the efferent phase, when epidermal cells encounter a particular antigen to which they have previously been exposed, localized swelling occurs (in rodents) and in humans results in eczema of the skin.
In an exemplary protocol, mice are shaved and the skin of their abdomens exposed to a hapten. After 6 days (the afferent phase), the baseline ear thickness is measured prior to initiation of the efferent phase. Finally, the ear is treated epicutaneously with the hapten solution and ear thickness is measured at approximately 24 hr. […]

[3] = ointment, 24 hours, listed as C15

## C[C@H](N)C(=O)NCC(=O)N[C@@H](CCC(=O)O)C(=O)N[C@@H](CC(=O)O)C(=O)N1CCC[C@H]1C(=O)N[C@@H](Cc1c[nH]cn1)C(=O)N[C@@H](CO)C(=O)N[C@@H](Cc1ccccc1)C(=O)N[C@@H](Cc1ccc(O)cc1)C(=O)N[C@@H](Cc1ccccc1)C(=O)N1CCC[C@H]1C(=O)NCC(=O)N[C@@H](CCC(N)=O)C(=O)N[C@@H](Cc1ccccc1)C(=O)N[C@@H](C)C(=O)O [C15 (human)] (H-AGEDPHSFYFPGQFA-OH; N-terminus and C-terminus assumed)
[1]; Ointment, fresh human skin, after 24 hrs
  [C15] in Receptor Fluid (5 mL): <10 nM
[1]; female, human, ointment, 24 hours, mass balance, read-out: Total % recovery
  recovery at 24 h: 104%
[1]; ointment
  epidermis and dermis combined, share of the applied dose: < 1%
[1]; ointment, 24 hours, HPLC LLQ 150 ng/ml
  Receptor fluid, C15: <LLQ
[1]; [3]
  Dermis homogenate, % of applied: 0.00% and 0.02% and 0.12%
  Epidermis, % of applied: 70.2% and 64.1% and 71.2%
  Epidermis, C15: 1.53 mg and 2.25 mg and 1.45 mg
  Skin Surface, % of applied: 33.6% and 33.3% and 40.6%
  Skin Surface, C15 recovered: 0.74 mg and 1.17 mg and 0.83 mg
[1]; ointment, 24 hours, mass balance, listed as C15
  Total % recovery: 97.4% and 111.8%
[2]
  allergic response (contact hypersensitivity): prevention, suppression and/or treatment of the allergic response
